# Laboratory results taken from US6596265B1, “Use of sophorolipids comprising diacetyl lactones as agent for stimulating skin fibroblast metabolism” (Institut Français du Pétrole, priority 1998, dated 2003).
# Where “and” joins values, the source holds several entries; their conditions need not be identical. Identical values can stand only once. Marks after values point to notes of the source that are not given here.
# Experiments:
# Format in all cases: cell-based
# Settings in all cases: 100 μg/ml, 3 days incubation
# [1] = test system: normal human dermal fibroblast cultures; assay: Protein content of fibroblast cell layers (cell division), Coomassie Blue/Bradford
# Method: The effects of the product on cell division were evaluated by measuring the DNA and proteins in the cell layers after 3 days of incubation. Fibroblasts were isolated from the operative residue of abdominal plastic surgery carried out on a person. The cells were cultivated in fibroblast culture medium (FCM) at 37° C. in a moist atmosphere containing 5% of CO2 until confluence of the monolayers. The culture medium used was fibroblast culture medium (FCM), constituted by MEM/M199 (¾, ¼, v/v) with added penicillin (50 IU/ml), streptomycin (50 μg/ml), sodium bicarbonate (0.2%, wv/v) and SVF (10%, v/v). The fibroblast incubation medium (FIM) with the products was constituted by MEM/M199 (¾, ¼, v/v) with added penicillin (50 IU/ml), streptomycin (50 μg/ml), sodium bicarbonate (0.2%, w/v) and SVF (2%, v/v). It contained 1 μCi/ml of tritiated proline. The purified lactone fraction was diluted in FIM and was tested at 0.02, 0.08 and 0.4 μg/ml (dry matter). The unrefined sophorolipids were tested at 0.08; 0.4 and 2 μg/ml. The ascorbic acid was tested at 100 μg/ml (0.5 mM) in FIM. The fibroblast cultures were incubated for 3 days at 37° C. in a moist atmosphere containing 5% of CO2. Reference cultures, incubated in the absence of the products to be tested, were produced in parallel. The tests were carried out in triplicate. […]
# [2] = test system: normal human dermal fibroblasts; assay: DNA content of fibroblast cell layers (cell division), HOECHST 33258 fluorimetry
# Method: The effects of the product on cell division were evaluated by measuring the DNA and proteins in the cell layers after 3 days of incubation. Fibroblasts were isolated from the operative residue of abdominal plastic surgery carried out on a person. The cells were cultivated in fibroblast culture medium (FCM) at 37° C. in a moist atmosphere containing 5% of CO2 until confluence of the monolayers. The culture medium used was fibroblast culture medium (FCM), constituted by MEM/M199 (¾, ¼, v/v) with added penicillin (50 IU/ml), streptomycin (50 μg/ml), sodium bicarbonate (0.2%, wv/v) and SVF (10%, v/v). The fibroblast incubation medium (FIM) with the products was constituted by MEM/M199 (¾, ¼, v/v) with added penicillin (50 IU/ml), streptomycin (50 μg/ml), sodium bicarbonate (0.2%, w/v) and SVF (2%, v/v). It contained 1 μCi/ml of tritiated proline. The purified lactone fraction was diluted in FIM and was tested at 0.02, 0.08 and 0.4 μg/ml (dry matter). The ascorbic acid was tested at 100 μg/ml (0.5 mM) in FIM. The fibroblast cultures were incubated for 3 days at 37° C. in a moist atmosphere containing 5% of CO2. Reference cultures, incubated in the absence of the products to be tested, were produced in parallel. The tests were carried out in triplicate. After incubation, the incubation media were removed then the cell layers were rinsed with PBS The cells were then lysed by ultrasound. The DNA was assayed using a fluorimetric method using HOECHST 33258 reactant. The proteins in the cell lysate were assayed using the Coomassie Blue method described by Bradford. These assays ensured a suitable interpretation of the results obtained for collagen neosynthesis. Treatment of data: the groups of data (reference group and treated groups) were processed by a one-way variance analysis (ANOVA 1, p<0.05) followed by a Dunnett test (p<0.05). The effect of the products was thus compared with the control group.
# [3] = test system: normal human dermal fibroblast cultures; assay: Collagen neosynthesis: tritiated proline incorporation into cell layer collagens
# Text: The effect of purified lactones on the synthesis of collagens in normal human dermal fibroblast cultures was studied. Collagyens are quantitatively the major dermal proteins. Proline and hydroxyproline constitute 30% of the constituent amino acids of collagens (a high percentage and much higher than that of the majority of other fibroblast proteins). Hydroxyproline is not an amino acid incorporated during the synthesis of collagens, as is the case with proline. Hydroxylation of proline, which leads to the presence of hydroxyproline in collagens, is a collagen maturation process which occurs once synthesis is complete. Measuring the incorporation of tritiated proline into fibroblast proteins thus provides a good index of collagen neosynthesis. […] Collagen neosynthesis was measured by monitoring the incorporation of radiolabelled proline into newly synthesised fibroblast proteins. […] Fractions (1) and (2) were measured together and grouped under the title “cell layer collagens”. […] Measurement of incorporation of tritiated proline into “cell layer collagens” the incorporation of tritiated proline into neosynthesised fibroblast proteins, the proteins present in the cells and deposited in the extracellular matrix, was evaluated after 3 days of incubation. The radioactivity of the cell lysate obtained as described above was measured by liquid scintillation with a β particle counter. […]
# [4] = test system: normal human dermal fibroblast cultures; assay: Collagen neosynthesis: tritiated proline incorporation into secreted collagens (culture medium, >30 kD)
# Text: The effect of purified lactones on the synthesis of collagens in normal human dermal fibroblast cultures was studied. Collagyens are quantitatively the major dermal proteins. Proline and hydroxyproline constitute 30% of the constituent amino acids of collagens (a high percentage and much higher than that of the majority of other fibroblast proteins). Hydroxyproline is not an amino acid incorporated during the synthesis of collagens, as is the case with proline. Hydroxylation of proline, which leads to the presence of hydroxyproline in collagens, is a collagen maturation process which occurs once synthesis is complete. […] Collagen neosynthesis was measured by monitoring the incorporation of radiolabelled proline into newly synthesised fibroblast proteins. […] Fractions (1) and (2) were measured together and grouped under the title “cell layer collagens”. […] Measurement of incorporation of tritiated proline into “secreted collagens”: the incorporation of tritiated proline into neosynthesised collagens secreted in the culture medium was evaluated after 3 days of incubation. […] The radioactivity of the high molecular weight protein fraction (retained on the filters) corresponded almost exclusively to the secreted collagens and was measured by liquid scintillation with a β particle counter. […]
smiles,measurement,setting,value
"O=C1O[C@H]([C@@H](O)CO)C(O)=C1O [Ascorbic acid, ascorbic acid]",Proteins in cell layer,[1],108 % of reference
same,"DNA content, percentage of control",[2],90 percentage of control
same,"DNA content, mean",[2]; mean of triplicate,7.5 μg/cell layer
same,"DNA content, individual culture",[2]; single replicate,10 μg/cell layer and 6 μg/cell layer (2×)
same,Cell layer collagens,[3],168%* % of control
same,"Increase of cell layer collagens, factor",[3]; factor versus control,0.68
same,Secreted collagens (culture medium),[4],181%* % of control
same,"Increase of secreted collagens, factor",[4]; factor versus control,1.81
